Measurements reported in patent US20230390353A1, “PHARMACEUTICAL COMPOSITION FOR TREATING MYOCARDIAL ISCHEMIA AND PREPARATION METHOD THEREFOR” (TASLY PHARMACEUTICAL GROUP CO., LTD., priority 2021, published 2023).

How the values were obtained:
myocardial Na^+—K^+-ATP = assay: Energy metabolism related enzyme detection, myocardial Na+-K+-ATP activity; type: in vivo, SD rats; conditions: myocardium of myocardial ischemia rats after treatment
Text: (§1) 110 experimental animals were purchased, of which 10 animals were set as a sham-operation group, and 100 animals were used for modeling left anterior descending coronary artery ligation. After modeling, surviving rats were randomly divided into a vehicle control group, a traditional Chinese medicine group, a ranolazine group 1, a ranolazine group 2, a ranolazine group 3, a pharmaceutical composition group 1 of the present invention and a pharmaceutical composition group 2 of the present invention according to body weight. After therapeutic administration for 28 days, the rats from the vehicle control group were given the same amount of menstruum by gavage. On the 28th day of intragastric administration, 6 rats in each group were randomly selected for echocardiography. After intragastric administration of 60 min on Day 30, a weight-bearing swimming test was performed, and animal samples were taken after the end of weight-bearing swimming.

[1] = test system: rats with myocardial ischemia; assay: Weight-bearing swimming duration test in rats with myocardial ischemia; type: in vivo, SD rats; conditions: gavage, Day 30, 60 min after dose, 5% load
Text: as §1, with “swimming. After intragastric administration of 60 min on Day 30, the experimental animals were subjected to the weight-bearing swimming test. After weighing, the rats, fixed a 5% weight of its body weight on the tail were placed in a transparent container filled with water with an inner diameter of 19 cm and a water depth of 30 cm. The water temperature was 25±2° C. The rats swimming to exhaustion were judged by the standard of losing balance and the head submerged for more than 10 seconds. The time of swimming was recorded as the time of weight-bearing swimming.” for “swimming.”

[2] = test system: rats with myocardial ischemia; assay: Myocardial histopathology detection in rats with myocardial ischemia; type: in vivo, SD rats; conditions: myocardial pathology
Text: as §1, with “swimming. […] The administration of the pharmaceutical composition of the present invention could reduce myocardial fibrosis to varying degrees, causing a certain protective effect on the ischemic myocardium, and the effect of the pharmaceutical composition group 2 of the present invention was better.” for “swimming.”

normal mice = assay: Weight-bearing swimming time in normal mice; type: in vivo; conditions: normal BALB/c mice, 7 days pre-administration, 30 min after last administration, 5% body weight load; ranolazine 205 mg/kg, traditional Chinese medicine 68 mg/kg, composition 34 + ranolazine 102 mg/kg
Protocol: According to the reference, 40 male mice are randomly divided into 4 groups (n=10): a normal group, a ranolazine group, a traditional Chinese medicine group and a pharmaceutical composition group of the present invention are administered in advance for 7 days, and the mice in the normal group are administered intragastrically with equivalent distilled water. Swimming tests are performed 30 min after the last administration. Mice are fixed a 5% weight of its body weight on the tail, and then placed in a large container filled with water of about 20 cm. Water should not be overfilled, so as to prevent mice from jumping out. The mice are forced to swim to exhaustion until they swim to death, and the time is recorded as the weight-bearing swimming time of the mice. See Table 5 for grouping and dose setting.

[3] = test system: rats with myocardial ischemia; assay: Echocardiography (cardiac function) in rats with myocardial ischemia; type: in vivo, SD rats; conditions: Day 28, 60 min after gavage
Text: as §1, with “After” for “110 experimental animals were purchased, of which 10 animals were set as a sham-operation group, and 100 animals were used for modeling left anterior descending coronary artery ligation. After”, “swimming. After intragastric administration of 60 min on Day 28, 6 rats in each group were randomly selected, and the cardiac function was detected by a portable b-ultrasound instrument. The changes of cardiac ejection fraction (EF) and E/A were detected.” for “swimming.”

[4] = test system: myocardial Ca^2+—Mg^2+-ATP; assay: Energy metabolism related enzyme detection, myocardial Ca2+-Mg2+-ATP activity; type: in vivo, SD rats; conditions: myocardium of myocardial ischemia rats after treatment
Text: as §1

## COc1ccccc1OCC(O)CN1CCN(CC(=O)Nc2c(C)cccc2C)CC1 (racemic) [Ranolazine, (±)-N-(2,6-dimethylphenyl)-4-[2-hydroxy-3-(2-methoxyphenoxy)propyl]-1-piperazine acetamide]
Myocardial Na^+—K^+-ATP; ranolazine group 1, 100 mg/kg
  Na^+—K^+-ATP: 46.04 ± 8.57 µmol/h/g
Myocardial Na^+—K^+-ATP; ranolazine group 2, 50 mg/kg
  Na^+—K^+-ATP: 47.10 ± 6.57 µmol/h/g
Myocardial Na^+—K^+-ATP; ranolazine group 3, 25 mg/kg
  Na^+—K^+-ATP: 34.98 ± 9.26 µmol/h/g
[1]; ranolazine group 1, 100 mg/kg
  Weight-bearing swimming duration: 1927 ± 1450 s
[1]; ranolazine group 2, 50 mg/kg
  Weight-bearing swimming duration: 1268 ± 513 s
[1]; ranolazine group 3, 25 mg/kg
  Weight-bearing swimming duration: 1108 ± 358 s
[2]; ranolazine group 1, 100 mg/kg
  Basically normal (number of cases): 4 number of cases
  Mild (cardiac muscle fiber partially replaced by collagen fiber): 1 number of cases
  Severe (decreased myocardial thickness, and occurrence of transmural myocardial infarction): 1 number of cases
[2]; ranolazine group 2, 50 mg/kg
  Basically normal (number of cases): 3 number of cases
  Mild (cardiac muscle fiber partially replaced by collagen fiber): 1 number of cases
  Severe (decreased myocardial thickness, and occurrence of transmural myocardial infarction): 2 number of cases
[2]; ranolazine group 3, 25 mg/kg
  Basically normal (number of cases): 2 number of cases
  Mild (cardiac muscle fiber partially replaced by collagen fiber): 2 number of cases
  Severe (decreased myocardial thickness, and occurrence of transmural myocardial infarction): 2 number of cases
Normal mice
  Swimming time: 3746 ± 1837 s
[3]; ranolazine group 1, 100 mg/kg
  E/A: 1.10 ± 0.09
  Ejection Fraction (EF %): 55.32 ± 2.76 %
[3]; ranolazine group 2, 50 mg/kg
  E/A: 1.06 ± 0.13
  Ejection Fraction (EF %): 50.52 ± 2.15 %
[3]; ranolazine group 3, 25 mg/kg
  E/A: 0.92 ± 0.08
  Ejection Fraction (EF %): 45.03 ± 1.57 %
[4]; ranolazine group 1, 100 mg/kg
  Ca^2+—Mg^2+-ATP: 37.99 ± 8.20 µmol/h/g
[4]; ranolazine group 2, 50 mg/kg
  Ca^2+—Mg^2+-ATP: 50.92 ± 6.18 µmol/h/g
[4]; ranolazine group 3, 25 mg/kg
  Ca^2+—Mg^2+-ATP: 29.96 ± 7.66 µmol/h/g
